Key:
[1] = biological target: Disintegrin and metalloproteinase domain-containing protein 17 (Homo sapiens, UniProt P78536); experiment: Inhibition of TACE
[2] = biological target: T1, Interstitial collagenase (Homo sapiens, UniProt P03956); experiment: Inhibition of MMP1
T1 sequence (P03956 whole entry): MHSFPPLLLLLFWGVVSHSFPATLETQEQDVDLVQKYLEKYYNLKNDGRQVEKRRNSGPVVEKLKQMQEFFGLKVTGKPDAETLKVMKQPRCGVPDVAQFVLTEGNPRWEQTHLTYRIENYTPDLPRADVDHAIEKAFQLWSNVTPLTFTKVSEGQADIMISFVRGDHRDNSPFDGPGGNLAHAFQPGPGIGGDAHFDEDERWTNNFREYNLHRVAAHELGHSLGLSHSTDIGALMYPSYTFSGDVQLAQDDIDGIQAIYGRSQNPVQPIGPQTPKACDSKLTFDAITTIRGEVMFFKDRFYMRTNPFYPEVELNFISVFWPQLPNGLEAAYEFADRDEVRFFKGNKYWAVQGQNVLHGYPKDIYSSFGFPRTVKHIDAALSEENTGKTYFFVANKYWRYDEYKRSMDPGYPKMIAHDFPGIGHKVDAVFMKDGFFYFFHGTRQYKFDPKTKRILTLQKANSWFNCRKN

[3] = biological target: Matrix metalloproteinase-14 (Homo sapiens, UniProt P50281); experiment: Inhibition of MMP14
[4] = biological target: Stromelysin-1 (Homo sapiens, UniProt P08254); experiment: Inhibition of MMP3
Sequence of Stromelysin-1 (P08254 whole entry): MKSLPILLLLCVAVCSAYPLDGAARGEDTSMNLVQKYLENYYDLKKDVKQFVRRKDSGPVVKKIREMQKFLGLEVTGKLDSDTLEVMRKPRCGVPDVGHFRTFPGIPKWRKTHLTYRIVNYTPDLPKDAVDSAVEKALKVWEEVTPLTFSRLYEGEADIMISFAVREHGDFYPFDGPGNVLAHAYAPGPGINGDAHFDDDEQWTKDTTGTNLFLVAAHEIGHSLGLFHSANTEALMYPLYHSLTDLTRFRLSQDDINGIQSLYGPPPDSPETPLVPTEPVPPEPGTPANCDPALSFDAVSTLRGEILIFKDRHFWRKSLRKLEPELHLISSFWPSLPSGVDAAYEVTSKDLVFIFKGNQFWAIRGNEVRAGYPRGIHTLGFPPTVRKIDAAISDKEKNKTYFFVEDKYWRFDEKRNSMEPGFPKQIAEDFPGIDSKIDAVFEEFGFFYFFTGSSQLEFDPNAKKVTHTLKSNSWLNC

[5] = biological target: 72 kDa type IV collagenase (Homo sapiens, UniProt P08253); experiment: Inhibition of MMP2
Sequence of 72 kDa type IV collagenase (P08253 whole entry, the tested form may be a part): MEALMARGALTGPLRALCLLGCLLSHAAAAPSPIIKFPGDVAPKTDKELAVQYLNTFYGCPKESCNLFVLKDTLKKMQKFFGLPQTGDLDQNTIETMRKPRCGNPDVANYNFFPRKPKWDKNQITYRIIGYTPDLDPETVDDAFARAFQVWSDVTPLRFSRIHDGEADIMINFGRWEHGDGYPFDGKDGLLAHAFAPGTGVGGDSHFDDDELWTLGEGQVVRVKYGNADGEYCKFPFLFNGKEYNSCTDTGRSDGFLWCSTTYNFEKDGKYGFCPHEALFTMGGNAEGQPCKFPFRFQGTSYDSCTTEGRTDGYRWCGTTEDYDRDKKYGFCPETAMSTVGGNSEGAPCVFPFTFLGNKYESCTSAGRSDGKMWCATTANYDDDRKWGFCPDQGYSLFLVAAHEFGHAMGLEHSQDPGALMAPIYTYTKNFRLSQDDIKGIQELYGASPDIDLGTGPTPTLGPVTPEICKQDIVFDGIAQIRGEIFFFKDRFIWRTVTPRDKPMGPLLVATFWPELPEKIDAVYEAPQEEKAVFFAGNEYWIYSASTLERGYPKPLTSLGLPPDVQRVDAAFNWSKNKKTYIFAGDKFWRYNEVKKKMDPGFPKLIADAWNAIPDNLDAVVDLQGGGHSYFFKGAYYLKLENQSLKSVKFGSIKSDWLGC

[6] = biological target: T2, Disintegrin and metalloproteinase domain-containing protein 10 (Homo sapiens, UniProt O14672); experiment: Inhibition of ADAM10
T2 sequence (O14672 whole entry): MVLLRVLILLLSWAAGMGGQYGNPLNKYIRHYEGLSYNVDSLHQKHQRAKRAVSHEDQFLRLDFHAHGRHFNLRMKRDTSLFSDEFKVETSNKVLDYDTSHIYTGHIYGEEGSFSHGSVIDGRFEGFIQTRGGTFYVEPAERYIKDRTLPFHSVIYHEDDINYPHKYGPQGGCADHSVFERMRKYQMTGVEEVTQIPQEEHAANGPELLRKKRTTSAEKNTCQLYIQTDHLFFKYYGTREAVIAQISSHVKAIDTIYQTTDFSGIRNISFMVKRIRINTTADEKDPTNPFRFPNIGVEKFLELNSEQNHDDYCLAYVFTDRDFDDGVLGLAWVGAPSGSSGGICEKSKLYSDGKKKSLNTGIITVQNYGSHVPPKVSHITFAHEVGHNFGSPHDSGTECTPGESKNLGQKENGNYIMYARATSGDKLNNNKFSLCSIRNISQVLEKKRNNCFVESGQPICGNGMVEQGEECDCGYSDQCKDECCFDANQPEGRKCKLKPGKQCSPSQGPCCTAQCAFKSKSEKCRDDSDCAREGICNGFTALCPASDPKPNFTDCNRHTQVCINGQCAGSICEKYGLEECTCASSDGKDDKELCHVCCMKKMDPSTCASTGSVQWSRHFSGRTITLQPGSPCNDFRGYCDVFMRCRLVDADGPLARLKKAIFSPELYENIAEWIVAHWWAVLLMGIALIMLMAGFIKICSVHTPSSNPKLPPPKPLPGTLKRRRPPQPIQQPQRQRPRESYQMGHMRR

[7] = biological target: Macrophage metalloelastase (Homo sapiens, UniProt P39900); experiment: Inhibition of MMP12
Sequence of Macrophage metalloelastase (P39900 whole entry): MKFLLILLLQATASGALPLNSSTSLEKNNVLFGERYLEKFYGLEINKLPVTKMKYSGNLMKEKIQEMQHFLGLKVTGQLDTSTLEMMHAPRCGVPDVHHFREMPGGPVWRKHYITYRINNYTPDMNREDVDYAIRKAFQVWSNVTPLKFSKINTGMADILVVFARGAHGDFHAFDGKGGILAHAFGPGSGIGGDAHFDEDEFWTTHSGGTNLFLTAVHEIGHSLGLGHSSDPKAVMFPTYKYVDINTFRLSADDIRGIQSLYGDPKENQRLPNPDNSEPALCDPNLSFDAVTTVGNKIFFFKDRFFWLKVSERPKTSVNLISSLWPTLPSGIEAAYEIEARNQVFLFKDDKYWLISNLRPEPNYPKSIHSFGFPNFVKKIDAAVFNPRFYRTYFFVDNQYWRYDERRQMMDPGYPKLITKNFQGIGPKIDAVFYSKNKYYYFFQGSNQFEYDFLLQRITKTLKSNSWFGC

[8] = biological target: Collagenase 3 (Homo sapiens, UniProt P45452); experiment: Inhibition of MMP13
[9] = biological target: T3, Matrilysin (Homo sapiens, UniProt P09237); experiment: Inhibition of MMP7
T3 sequence (P09237 whole entry): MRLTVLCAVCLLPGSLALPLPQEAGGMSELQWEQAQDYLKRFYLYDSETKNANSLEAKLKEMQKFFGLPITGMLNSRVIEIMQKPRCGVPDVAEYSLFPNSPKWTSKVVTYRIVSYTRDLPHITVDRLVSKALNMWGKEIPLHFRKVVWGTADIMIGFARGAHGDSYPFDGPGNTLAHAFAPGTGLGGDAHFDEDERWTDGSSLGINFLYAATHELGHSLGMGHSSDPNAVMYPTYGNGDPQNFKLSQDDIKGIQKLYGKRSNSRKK

Sequence of Disintegrin and metalloproteinase domain-containing protein 17 (P78536 whole entry, the tested form may be a part): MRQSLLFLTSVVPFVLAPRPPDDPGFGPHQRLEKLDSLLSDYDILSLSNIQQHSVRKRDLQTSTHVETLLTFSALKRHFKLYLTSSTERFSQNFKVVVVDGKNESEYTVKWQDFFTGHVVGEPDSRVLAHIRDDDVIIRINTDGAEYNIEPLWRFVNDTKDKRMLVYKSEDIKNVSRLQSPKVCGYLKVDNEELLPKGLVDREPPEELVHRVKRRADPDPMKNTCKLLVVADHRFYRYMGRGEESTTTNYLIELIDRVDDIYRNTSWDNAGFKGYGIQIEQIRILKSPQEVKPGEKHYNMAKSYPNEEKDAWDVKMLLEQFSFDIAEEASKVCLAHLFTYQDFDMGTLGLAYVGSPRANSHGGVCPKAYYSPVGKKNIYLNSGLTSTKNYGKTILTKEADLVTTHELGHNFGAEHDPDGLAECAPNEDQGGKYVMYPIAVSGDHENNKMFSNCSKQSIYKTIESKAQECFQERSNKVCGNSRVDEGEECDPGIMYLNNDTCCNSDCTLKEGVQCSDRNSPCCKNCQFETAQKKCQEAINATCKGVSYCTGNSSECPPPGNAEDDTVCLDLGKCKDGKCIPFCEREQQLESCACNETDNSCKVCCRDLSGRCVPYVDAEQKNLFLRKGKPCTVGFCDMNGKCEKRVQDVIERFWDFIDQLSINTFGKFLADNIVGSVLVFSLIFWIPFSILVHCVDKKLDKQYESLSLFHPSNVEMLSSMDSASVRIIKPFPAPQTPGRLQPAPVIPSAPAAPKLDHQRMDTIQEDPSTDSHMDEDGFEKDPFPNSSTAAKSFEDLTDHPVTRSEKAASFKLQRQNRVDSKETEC

Row | SMILES | Ki ([1]; read-out: Ki) [nM] | further results
1 | O=C(NCCc1cccs1)[C@H](O)CC(=O)N1CCCC1c1cccc(Cl)c1 (some centres undefined) | – | Ki [1]: Not Active
2 | O=C(NCCc1cccs1)[C@H](O)[C@@H](O)c1nccs1 | 5530 | –
3 | O=C(NCCc1cccs1)[C@H](O)[C@@H](O)C(=O)N1CCCC1c1ccccc1Cl (some centres undefined) | 323 | –
4 | O=C(NCCc1cccs1)[C@H](O)[C@@H](O)C(=O)N1CCCC1c1cccc(Cl)c1 (some centres undefined) | 11 | Ki [2]: > 50 µM; Ki [3]: 11 µM; Ki [4]: 17 µM; Ki [5]: 33 µM; Ki [6]: 29 nM; Ki [7]: > 50 µM; Ki [8]: 20 µM; Ki [9]: > 50 µM
5 | Cc1cccc(C2CCCN2C(=O)[C@H](O)[C@@H](O)C(=O)N(C)CCc2cccs2)c1 (some centres undefined) | 13 | –
6 | COc1cccc(C2CCCN2C(=O)[C@H](O)[C@@H](O)C(=O)N(C)CCc2cccs2)c1 (some centres undefined) | 33 | –
7 | O=C(NCc1cc(CC2C=CC=CC2Cl)cs1)[C@H](O)[C@@H](O)C(=O)N1CCC[C@@H]1c1cccc(Cl)c1 (some centres undefined) | 13 | –
8 | O=C([C@H](O)[C@@H](O)C(=S)NCc1cc(Cc2ccccc2Cl)cs1)N1CCCC1c1cccc(Cl)c1 (some centres undefined) | 1110 | –
9 | C[C@@H](c1ccccc1)N(C)C(=O)[C@H](O)[C@@H](O)C(=O)NCCc1cccs1 | 487 | –
10 | CN(C)c1cccc(C2CCCN2C(=O)[C@H](O)[C@@H](O)C(=O)NCCc2cccs2)c1 (some centres undefined) | 41 | –
11 | O=C(NCc1cc(Cc2ccccc2)cs1)[C@H](O)[C@@H](O)C(=O)N1CCCC1c1ccc(F)cc1 (some centres undefined) | 93 | –
12 | O=C(NCCc1nc(Cc2ccccc2)cs1)[C@H](O)[C@@H](O)C(=O)N1CCCC1c1ccccc1 (some centres undefined) | 48 | –
13 | O=C(NCc1cc2ccccc2o1)[C@H](O)[C@@H](O)C(=O)N1CCCC1c1ccccc1 (some centres undefined) | 160 | Ki [2]: 18.7 µM; Ki [3]: 0.14 µM; Ki [4]: 7.7 µM; Ki [5]: 0.3 µM; Ki [6]: 734 nM; Ki [8]: 0.51 µM; Ki [9]: > 50 µM
14 | O=C(NCc1nc(Cc2ccccc2)cs1)[C@H](O)[C@@H](O)C(=O)N1CCCC1c1ccccc1 (some centres undefined) | 8 | –
15 | O=C(NCc1nc(Cc2ccccc2)co1)[C@H](O)[C@@H](O)C(=O)N1CCCC1c1ccccc1 (some centres undefined) | 22 | –
16 | CN(Cc1ccccc1)C(=O)[C@H](O)[C@@H](O)C(=O)NCCc1cccs1 | 764 | –
17 | CN(CCc1ccccc1)C(=O)[C@H](O)[C@@H](O)C(=O)NCCc1cccs1 | 1280 | –
18 | C[C@H](c1ccccc1)N(C)C(=O)[C@H](O)[C@@H](O)C(=O)NCCc1cccs1 | 238 | –
19 | O=C(NCCc1cccs1)[C@H](O)[C@@H](O)C(=O)N1CCCCC1c1ccccc1 (some centres undefined) | 325 | –
20 | O=C(NCCc1cccs1)[C@H](O)[C@@H](O)C(=O)N1CCC(c2ccccc2)C1 (some centres undefined) | 456 | –
21 | O=C(NCCc1cccs1)[C@H](O)[C@@H](O)C(=O)N1CCN(c2ccccn2)CC1 | 2500 | –
22 | CN(C)C(=O)[C@H](O)[C@@H](O)C(=O)NCCc1cccs1 | 1300 | –

Row | SMILES | Ki ([1]; read-out: Ki) [nM] | further results
23 | CN(C(=O)[C@H](O)[C@@H](O)C(=O)NCCc1cccs1)C1CCCCC1 | 1400 | –
24 | O=C(NCCc1cccs1)[C@H](O)[C@@H](O)C(=O)NCc1ccccc1 | – | Ki [1]: Not Active
25 | O=C(NCCc1cccs1)[C@H](O)[C@@H](O)C(=O)N1CCC(Cc2ccccc2)CC1 | 1100 | –
26 | O=C(NCCc1cccs1)[C@H](O)[C@@H](O)C(=O)N1CCc2ccccc2C1 | 91 | –
27 | O=C(NCCc1cccs1)[C@H](O)[C@@H](O)C(=O)N1CCCC1c1nccs1 (some centres undefined) | 164 | –
28 | COc1cccc(N2CCN(C(=O)[C@H](O)[C@@H](O)C(=O)NCCc3cccs3)CC2)c1 | 400 | –
29 | O=C(NCCc1cccs1)[C@H](O)[C@@H](O)C(=O)N1CCCC1c1ccc(Cl)cc1 (some centres undefined) | 755 | –
30 | CN(Cc1cccnc1)C(=O)[C@H](O)[C@@H](O)C(=O)NCCc1cccs1 | 943 | –
31 | O=C(NCc1ccc(Cc2ccccc2)cc1)[C@H](O)[C@@H](O)C(=O)N1CCCC1c1cccc(Cl)c1 (some centres undefined) | 70 | –
32 | O=C(C[C@@H](O)C(=O)N1CCCC1c1cccc(Cl)c1)NCCc1cccs1 (some centres undefined) | – | Ki [1]: Not Active
33 | O=C(NCc1cc(Cc2ccccc2Cl)cs1)[C@H](O)[C@@H](O)C(=S)N1CCCC1c1cccc(Cl)c1 (some centres undefined) | 1520 | –
34 | O=C(NCCc1cc(Cc2ccccc2)cs1)[C@H](O)[C@@H](O)C(=O)N1CCCC1c1ccccc1 (some centres undefined) | 66 | Ki [2]: > 50 µM; Ki [3]: > 30 µM; Ki [5]: > 50 µM; Ki [6]: > 25000 nM; Ki [7]: 0.7 µM; Ki [8]: 3.6 µM; Ki [9]: 6 µM
35 | Cn1ccnc1[C@H](O)[C@@H](O)C(=O)NCCc1cccs1 | 10600 | –
36 | O=C(NCCc1cccs1)[C@H](O)[C@@H](O)C(=O)N1CCC[C@@H]1c1ccccc1 | 20 | –
37 | O=C(NCCc1cccs1)[C@H](O)[C@@H](O)C(=O)N1Cc2ccccc2C1 | 66 | –
38 | CN(CCc1cccs1)C(=O)[C@H](O)[C@@H](O)C(=O)N1CCN(c2ccccc2Cl)CC1 | – | Ki [1]: Not Active
39 | CN(Cc1ccco1)C(=O)[C@H](O)[C@@H](O)C(=O)NCCc1cccs1 | 1020 | –
40 | O=C(NCCc1cccs1)[C@H](O)[C@@H](O)C(=O)N1CCCC1c1ccccn1 (some centres undefined) | 188 | –
41 | O=C(NCCc1cccs1)[C@H](O)[C@@H](O)C(=O)N1CCN(c2ccccc2Cl)CC1 | 400 | Ki [2]: > 90 µM; Ki [3]: > 40 µM; Ki [4]: > 50 µM; Ki [5]: > 30 µM; Ki [6]: 400 nM; Ki [7]: 9 µM; Ki [8]: 7 µM; Ki [9]: > 60 µM
42 | O=C(NCc1ccccc1)[C@H](O)[C@@H](O)C(=O)N1CCCC1c1cccc(Cl)c1 (some centres undefined) | 1440 | –
43 | O=C(NCCc1nc(Cc2ccccc2)co1)[C@H](O)[C@@H](O)C(=O)N1CCCC1c1ccccc1 (some centres undefined) | 461 | –
44 | O=C(NCCc1cccs1)[C@H](O)[C@@H](O)C(=O)N1CCCC1c1ccccc1 (some centres undefined) | 96 | –
